Legend:
[1] = system: T4L-β2AR-Gs or β2AR-Gs complexes; assay: purification and stability of T4L-β2AR-Gs or β2AR-Gs complexes (analytical gel filtration, negative staining EM); design: species or system human; details: after incubation for 15 and 17 days
Experimental: The ability of PSE-C11 or TPS-E10L to purify and stabilize T4L-β2AR-Gs or β2AR-Gs complexes was measured using electron microscopy (EM) analysis.
Specifically, measurement of the ability of PSE-C11 for TPS-E10L to purify and stabilize T4L-β2AR-Gs or β2AR-Gs complexes was performed as follows. 100 μM T4L-β2AR solubilized in 0.1 wt % DDM was mixed with 120 μM Gs heterotrimers for 30 minutes. 0.5 units of apyrase (NEB) and 2 mM MgCl2 were added to the mixture, followed by a 1-hour incubation to form complexes. 1 wt % PSE-C11 or TPS-E10L was respectively added to the mixture to achieve a final concentration of 0.8%, and incubated for 30 minutes to allow DDM to be exchanged with PSE-C11 or TPS-E10L. […] Finally, proteins were eluted with a 0.05% (100×CMC) PSE-C11 or TPS-E10L buffer. Gel filtration was performed using a running buffer (20 mM HEPES (pH 7.5), 100 mM NaCl, 0.005% PSE-C11 or TPS-E10L, 1 μM BI, 100 μM TCEP) to purify T4L-β2AR-Gs complexes. To measure the stability of β2AR-Gs complexes present in PSE-C11 or TPS-E10L, analytical gel filtration was performed with running buffers of the same formulation at 12 hours, 1 day, 3 days, 7 days, and 15 days. After a 15 day-incubation, analytical gel filtration was performed using an amphiphilic compound pre-buffer having the same formulation as above without PSE-C11 or TPS-E10L.
In addition, negative staining EM analysis for T4L-β2AR-Gs or β2AR-Gs complexes present in PSE-C11 was performed as follows. Samples containing T4L-β2AR-Gs or β2AR-Gs were prepared to perform electron microscopy analysis using a conventional negative staining protocol (see Peisley, A. et al., G Protein-Coupled Receptors in Drug Discovery: Methods and Protocols, Methods in Molecular Biology, 1335, 29-38 (2015)), and imaging was performed by operating a Tecnai T12 electron microscope at 120 kV at room temperature. Images were recorded with a Gatan US4000 CCD camera at a 71,138×magnification with a defocus value of ˜[…].

[2] = critical micelle concentration (CMC) by hydrophobic fluorescent staining with diphenylhexatriene (DPH); format: physicochemical
Excerpt: Methods of measuring CMC are not particularly limited, and methods widely known in the art may be used. For example, a fluorescence staining method using diphenylhexatriene (DPH) may be used.
To characterize PSAs of Preparation Examples 1 to 3 synthesized according to the synthetic method of Example 1; PSEs of Preparation Examples 4 to 7 synthesized according to the synthetic method of Example 2; TPS-Es and TPS-ELs of Preparation Examples 8 to 14 synthesized according to the synthetic method of Example 3; and TPS-As of Preparation Examples 15 to 17 synthesized according to the synthetic method of Example 4, the critical micellar concentrations (CMCs) of PSAs, PSEs and TPSs and the hydrodynamic radii (Rh) of formed micelles were measured.
(§1) Specifically, critical micellar concentrations (CMCs) were measured using hydrophobic fluorescent staining and diphenylhexatriene (DPH), and the hydrodynamic radii (Rh) of micelles formed by each compound at a concentration of 1.0 wt % were measured using dynamic light scattering (DLS). The results were compared with results obtained from an existing amphipathic molecule (detergent), DDM, and are shown in Table 1.

[3] = hydrodynamic radius of micelles by dynamic light scattering (DLS); format: physicochemical; details: compound at 1.0 wt %
Experimental: Methods of measuring the radius of micelles are not particularly limited, and methods widely known in the art may be used. For example, dynamic light scattering (DLS) may be used.
as §1
When measuring, each of PSAs, PSEs and TPSs was used at a concentration of 1.0 wt %.

[4] = molecular target: T1, human β2 adrenergic receptor (β2AR) (Homo sapiens, UniProt P07550); assay: β2AR activity by [3H]-dihydroalprenolol radioactive ligand binding assay; format: biochemical; details: for long-term β2AR activity ([3H]-DHA binding): 3 or 5 days at room temperature
T1 construct: Flag; made in house
T1 sequence (P07550 whole entry): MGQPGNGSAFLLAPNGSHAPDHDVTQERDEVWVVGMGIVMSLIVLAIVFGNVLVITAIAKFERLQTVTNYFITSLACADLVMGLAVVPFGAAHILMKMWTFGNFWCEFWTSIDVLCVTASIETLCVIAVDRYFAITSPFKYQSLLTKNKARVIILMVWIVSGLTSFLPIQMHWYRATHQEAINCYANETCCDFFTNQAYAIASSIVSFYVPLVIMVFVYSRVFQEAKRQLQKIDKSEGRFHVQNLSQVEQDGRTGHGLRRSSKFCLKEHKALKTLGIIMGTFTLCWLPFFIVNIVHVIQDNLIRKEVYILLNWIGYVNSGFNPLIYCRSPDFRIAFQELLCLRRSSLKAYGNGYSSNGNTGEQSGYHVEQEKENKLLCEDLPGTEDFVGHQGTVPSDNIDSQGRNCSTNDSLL
Experimental: The membrane protein stabilizing ability of receptors (mBBr-β2ARs) solubilized in PSAs or PSEs was evaluated by measuring the binding activity of the receptors to [^3H]-dihydroalprenolol ([^3H]-DHA).
Specifically, radioactive ligand binding assay was performed as follows. β2ARs purified with 0.1 wt % DDM was concentrated to about 10 mg/mL (approximately 200 μM). β2ARs purified with DDM were used to prepare a master binding mixture containing 10 nM [^3H]-dihydroalprenolol (DHA), which was dissolved in 0.2 wt % of DDM, PSA or PSE and supplemented with 0.5 mg/mL BSA. At a concentration of 0.2 pmol, the activity of the receptors purified with the amphipathic compounds was monitored at regular intervals over a 4-day incubation period. Protein samples were incubated on ice for 2 days and then at room temperature for 2 days. Receptor activity was measured by binding assay for dissolved radioactive ligands. The receptors purified with DDM or a novel formulation (PSA-C11, PSE-C11 or PSE-C13) were incubated with 10 nM [^3H]-DHA at room temperature for 30 minutes. The mixture was loaded onto a G-50 column, a solution passed through the column was collected in 1 mL of a binding buffer (100 mM NaCl and 20 mM HEPES (pH 7.5) supplemented with 0.5 mg/mL BSA and 20×CMC amphipathic compounds), and 15 mL of a scintillation fluid was added to the solution. Receptor-bound [^3H]-DHA was measured using a scintillation counter (Beckman). Non-specific binding of [^3H]-DHA was measured by adding 1 μM alprenolol (Sigma) to the same reaction mixture. The binding degree of the receptors to [^3H]-DHA was represented by a column graph.
The ability of TPSs (TPS-As, TPS-Es and TPS-ELs) to stabilize the structures of human β2 adrenergic receptors (β2ARs) and G protein-coupled receptors (GPCRs) was measured. That is, DDM-purified receptors were diluted with a buffer solution containing only each of the TPSs without cholesteryl hemisuccinate (CHS) or a buffer solution containing CHS and DDM. The final concentration of the compounds was CMC+0.2wt %, and the binding activity of the receptors to ligands was evaluated by measuring the degree of binding of the receptors to [^3H]-dihydroalprenolol ([^3H]-DHA).
Specifically, radioactive ligand binding assay was performed as follows. β2ARs were purified with 0.1 wt % DDM (D. M. Rosenbaum et al., Science, 2007, 318, 1266-1273.) and was concentrated to about 10 mg/mL (approximately 200 μM). β2ARs purified with DDM were used to prepare a master binding mixture containing 10 nM [^3H]-dihydroalprenolol (DHA), which was dissolved in 0.2% amphipathic compounds (DDM or TPSs) and supplemented with 0.5 mg/mL BSA. The activity of the receptors purified with the amphipathic compounds was monitored at regular intervals over a 3- to 5-day incubation period. The receptors purified with DDM or TPSs were incubated with 10 nM [^3H]-DHA at room temperature for 30 minutes. The mixture was loaded onto a G-50 column, a solution passed through the column was collected in 1 mL of a binding buffer (100 mM NaCl and 20 mM HEPES (pH 7.5) supplemented with 0.5 mg/mL BSA and 20×CMC of each amphipathic compound), and 15 mL of a scintillation fluid was added to the solution. Receptor-bound [^3H]-DHA was measured using a scintillation counter (Beckman). The binding degree of the receptors to [^3H]-DHA was represented by a column graph.

[5] = molecular target: T2, uric acid-xanthine/H+ symporter (UapA) (Emericella nidulans, UniProt Q07307, G411V); assay: thermal stability of UapA by CPM analysis; design: species or system Aspergillus nidulans; details: CMC+0.2 wt %, 40° C., 120 minutes
T2 construct: GFP; made in house; host or cells: Saccharomyces cerevisiae FGY217
T2 sequence (Q07307 12-574 G411V): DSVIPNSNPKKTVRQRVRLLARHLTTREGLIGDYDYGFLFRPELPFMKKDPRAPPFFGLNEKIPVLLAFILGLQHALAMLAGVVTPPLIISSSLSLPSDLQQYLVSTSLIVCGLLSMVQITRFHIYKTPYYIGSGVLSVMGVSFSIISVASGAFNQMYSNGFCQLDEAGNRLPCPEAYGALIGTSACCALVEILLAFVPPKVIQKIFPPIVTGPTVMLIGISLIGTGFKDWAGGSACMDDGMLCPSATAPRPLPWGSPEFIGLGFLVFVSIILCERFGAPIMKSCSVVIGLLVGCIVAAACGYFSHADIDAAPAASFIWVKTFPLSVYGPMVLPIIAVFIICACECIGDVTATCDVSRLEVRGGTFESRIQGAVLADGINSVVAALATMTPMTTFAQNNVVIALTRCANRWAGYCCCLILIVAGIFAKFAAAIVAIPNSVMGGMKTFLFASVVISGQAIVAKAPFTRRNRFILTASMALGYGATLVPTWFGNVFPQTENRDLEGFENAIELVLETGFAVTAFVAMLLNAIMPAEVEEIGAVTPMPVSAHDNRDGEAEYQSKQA
Experimental: The ability of TPSs (TPS-As, TPS-Es and TPS-ELs) to stabilize the structure of uric acid-xanthine/H+ symporter (UapA) isolated from Aspergillus nidulans was measured. The structural stability of UapA was evaluated using a sulfhydryl-specific fluorophore, N-[4-(7-diethylamino-4-methyl-3-coumarinyl)phenyl]maleimide (CPM).
Specifically, UapAG411V1-11 (hereinafter, referred to as ‘UapA’) was expressed in a Saccharomyces cerevisiae FGY217 strain as a GFP fusion protein, and was isolated using a sample buffer (20 mM Tris (pH 7.5), 150 mM NaCl, 0.03% DDM, 1 mM xanthine). The transporter was concentrated to about 10 mg/mL using a 100 kDa molecular weight cut-off filter (Millipore). The transporter was diluted with a CMC+0.04 wt % or CMC+0.2 wt % buffer at a ratio of 1:150 in a Greiner 96-well plate containing one of TPS-As (TPS-A6, TPS-A7 or TPS-A8), TPS-Es (TPS-E6, TPS-E7 or TPS-E8), TPS-ELs (TPS-E8L, TPS-E9L, TPS-E10L or TPS-E11L), MNG-3 or DDM (control group). […] During incubation, fluorescence emission intensity was monitored using a microplate spectrophotometer set at excitation and emission wavelengths of 387 and 463 nm, respectively. The maximum value of fluorescence intensity was used to calculate the relative percentage of folded transporters during the incubation period. […]

Row | SMILES | stability of β2AR-Gs complexes (analytical gel filtration) [1] | CMC [2] [mM] | CMC (wt %) [2] [wt %] | Rh (nm), hydrodynamic radius of micelles [3] [nm] | long-term β2AR activity ([3H]-DHA binding) [4] | initial receptor activity maintained ([4]; after 5 days of incubation at room temperature) | maintaining folding state of UapA (CPM) [5]
1 | CCCCCCCCCCOCC(COCCCCCCCCCC)(COCCCCCCCCCC)CO[C@@H]1OC(COCCCO[C@@H]2OC(CO)[C@@H](O)C(O)C2O)[C@@H](OCCCO[C@@H]2OC(CO)[C@@H](O)C(O)C2O)C(OCCCO[C@@H]2OC(CO)[C@@H](O)C(O)C2O)C1OCCCO[C@@H]1OC(CO)[C@@H](O)C(O)C1O (some centres unmarked) [TPS-E10L] | no separation of the complexes was observed at all | ~0.002 | ~0.0003 | 4.8 ± 0.34 | significantly better than that of DDM | up to 90% | –
2 | CCCCCCCCCCCOCC(COCCCCCCCCCCC)(COCCCCCCCCCCC)CO[C@@H]1OC(COCCCO[C@@H]2OC(CO)[C@@H](O)C(O)C2O)[C@@H](OCCCO[C@@H]2OC(CO)[C@@H](O)C(O)C2O)C(OCCCO[C@@H]2OC(CO)[C@@H](O)C(O)C2O)C1OCCCO[C@@H]1OC(CO)[C@@H](O)C(O)C1O (some centres unmarked) [TPS-E11L] | – | ~0.001 | ~0.0002 | 40.6 ± 4.4 | significantly better than that of DDM | – | the best effect

Reference: patent publication US20190169218A1, “AMPHIPATHIC COMPOUND HAVING NOVEL PENTA-SACCHARIDE HYDROPHILIC GROUP AND USE THEREOF” (Industry-University Cooperation Foundation Hanyang …, priority 2016, published 2019)
